Values after ≈ are worked out from the molar mass of the structure shown. Values joined by “and” are separate entries in the source; they are usually repeats but may differ in a detail not shown here. Identical values can stand only once.

In one data set the test system is zebrafish larvae. As to the kind of experiment: Locomotor activity of zebrafish larvae without proconvulsant treatment. The class given is in vivo, Danio rerio. Here is the method: (§1) 100 µL of embryo medium or 100 µL of a 40 mM PTZ solution was added to obtain a final concentration of 20 mM of PTZ in each well [30]. Larvae were habituated for 5 min in a dark chamber of an automated tracking device (ZebraBox system; Viewpoint, Lyon, France). Then, the locomotor activity without proconvulsant treatment was measured in the dark. The total locomotor activity was quantified using ZebraLab software (Viewpoint, Lyon, France) and was expressed in “actinteg”’ units, which is the sum of all pixel changes detected during the period defined for the experiment. After the evaluation of preincubated larvae movements, PTZ solution was added, and the locomotor behavior was measured for 30 min for each condition. All tracking experiments were performed at least in triplicate.

Data set [1] can be described thus: LC-MS/MS quantification of whole-body uptake in immersed zebrafish larvae. Here is the method: After immersion larvae were plated in 1% BSA for 15 s and washed thoroughly by shaking to remove all compounds from the larvae surface. […] For quantification, six larvae were pooled before homogenization. Three experiments were carried out in independent days.
These were homogenized with the Ultrasonic Processor UP50H (Hielscher): 1 cycle—60% amplitude. The run consisted of two cycles of 15 s with a rest of 50 s in ice for each sample. […] To 100 µL of homogenate 200 µL of the internal standard (IS) Rolipram (Sigma Aldrich, Buchs, Switzerland) (20 ng/mL) for the positive MS experiment, and VPA d-6 (Sigma Aldrich, Buchs, Switzerland) (50 µg/mL) for the negative MS experiment were added. Samples were vortexed for 10 s and then centrifuged at 12,000 rpm for 10 min at 4 °C. After centrifugation, 150 µL of supernatant was transferred into LC-MS vials already containing 120 µL of MilliQ water. Then, 10 µL was injected into the LC-MS/MS system.
A hybrid triple quadrupole 4000 QTRAP mass spectrometer (AB Sciex Concord, ON, Canada) was used with a Shimadzu UFLC (Shimadzu Corporation, Kyoto, Japan) with a cooled auto-sampler. The sample temperature was maintained at 4 °C in the auto-sampler prior to analysis. The LC column was Synergi 4 µm Fusion-RP 80Å C18 50 × 2 mm, Phenomenex, maintained at 45 °C. The system was operated first in positive and after in negative mode with the same elution mobile phases and gradient method. Mobile phases were as follows: water with 0.1% formic acid (solvent A) and methanol with 0.1% formic acid (solvent B). […] The flow rate was 0.80 mL/min. Peaks were integrated, and the analyst software version 1.6.2 (AB Sciex Concord, ON, Canada) was used for quantification. […] Negative mode: Valproic acid m/z 143→143, (IS: Valproic Acid-d6 149→149).

For data set [2], the system named is PTZ-induced seizure-like movements in zebrafish larvae. As to the kind of experiment: PTZ-induced seizure-like locomotor tracking in zebrafish larvae. The class given is in vivo, Danio rerio. The note with it: for decrease of actinteg values of PTZ-treated larvae: 1 h pre-immersion; for decrease of actinteg values of PTZ-treated larvae / decrease of locomotor activity of PTZ-treated larvae: 20 mM PTZ, vs vehicle-PTZ group. Here is the method:
For immersion 6 days post-fertilization (dpf) and for all measurements, 7-dpf larvae were used. The zebrafish experiments described here were approved by the Local Ethics Committee in Lublin (license no: 109/2018).
All compounds were dissolved in dimethyl sulfoxide (DMSO) and diluted in an embryo medium to achieve a final DMSO concentration of 1% w/v. Embryo medium prepared with DMSO to a final concentration of 1% w/v served as vehicle control (VHC). PTZ (Sigma-Aldrich, Poznań, Poland) was dissolved at a concentration of 40 mM in the embryo medium. The control anticonvulsant agent used in this study was VPN (Sigma-Aldrich, Poznań, Poland).
as §1

For data set [3] the following is noted: treated humans; cited from earlier work.
The conditions of data set [4]: mammals; cited from earlier work.
The conditions of data set [5]: cited from earlier work.
In data set [6] the test system is PTZ-induced epileptiform brain discharges in zebrafish larvae. As to the kind of experiment: Local field potential (LFP) recordings, power spectral density (PSD) analysis, PTZ-induced seizure model. The class given is in vivo, Danio rerio. The note with it: PTX 20 µM, 18 h immersion, mean PSD over the 1–50 Hz region, 20 mM PTZ. Here is the method: Non-invasive local field potential (LFP) was recorded from the optic tectum of zebrafish as described before. Before the recording, the treated larvae were immersed for 15 min in 100 µL of VHC or 20 mM PTZ. After immersion, a larva was immobilized in 2% low melting agarose (Invitogen, Waltham, MA, USA) and the signal electrode (Hilgenberg, Germany) was placed on the surface of the head above the optic tectum. The differential signal between the recording electrode and the reference electrode was amplified 10,000 times by EXT-02F/2 extracellular amplifier (NPI Electronic, Tamm, Germany), band pass filtered at 3–300 Hz and digitized at 2 kHz via a PCI-6251 interface (National Instruments, Austin, Texas, USA) with WinEDR (John Dempster, University of Strathclyde, Glasgow, Scotland). A HumBug noise eliminator (Quest Scientific, Hofheim, Germany) was used to remove 50–60 Hz noise. The recordings and the quantification of the signal from epileptiform brain discharges by Welch’s power spectral density (PSD) analysis were performed as described before.

The next data set has as its target T1, LAT1 (Homo sapiens, UniProt Q01650).
T1 construct: expressed in transfected cells; host or cells: MDST8-LAT1 cells
As to the kind of experiment: [3H]-L-leucine uptake inhibition in MDST8-LAT1 cells. The following applies: LAT1 transfected cells. The class given is cell-based. The protocol: [3H]-L-Leucine uptake assay
[3H]-L-Leucine uptake assay was performed as previously described [Yan et al., 2021]. Cells were seeded in 96-well plates with opaque bottom (Corning, 353296) at 40-60% confluency, allowing them to attach for 48 hours in a fully supplemented media. Cells were preincubated with different concentrations of […]
Solution (HBSS) containing 125 mM choline-Cl, 25 mM HEPES, 4.8 mM KCl, 1.2 mM MgSO4, 1.2 mM KH2PO4, 1.3 mM CaCl2 and 5.6 mM D-glucose (pH 7.4) and further incubated with the same solution for 7 minutes at 37 °C. [3H]-l-Leucine uptake was assessed in the same solution containing 10 nM “hot” [3H]-L-Leucine (60 Ci/mmol) (Anawa, 0140A-1) + 30 μM “cold” L-leucine. In case of 5 μM JPH203, the same procedure was followed without PTX preincubation. After 3 minutes, the solution was removed, and the cells were washed with ice-cold Na+-free HBSS to terminate the uptake. Cells were lysed with scintillation solvent MicroScint-20 (Perkin-Elmer Life Sciences, 6013621) and the radioactivity was measured with a scintillation counter (TopCount NXT, Perkin-Elmer Life Sciences).
*Yan R, Li Y, Müller J, Zhang Y, Singer S, Xia L, Zhong X, Gertsch J, Altmann KH, Zhou Q. Mechanism of substrate transport and inhibition of the human LAT1-4F2hc amino acid transporter. Cell Discov.

In data set [7] the test system is zebrafish larvae whole-body metabolites. As to the kind of experiment: Amino acid and neurotransmitter quantification (targeted metabolomics) in zebrafish larvae whole-body. The class given is in vivo, Danio rerio. The note with it: PTX 20 μM, 18 h immersion. Here is the method:
For quantification, six larvae were pooled before homogenization. Three experiments were carried out in independent days.
The samples were prepared as described before. To 80 µL of the homogenate 320 µL of MeOH was added to precipitate proteins at a volume dilution […]. After centrifugation at max speed (20,000 rpm) at 4 °C for 10 min, 50 µL were diluted with 200 µL of 1:1 MeOH:1 mM EDTA in Water (Dil 1:4). Samples were centrifuged at max speed at 4 °C for 10 min, and 50 µL were taken into the LC-MS insert vials, 5 µL of the internal standard mix (ethanolamine_d4, dopamine_d4, methionine_d3, serine_d3, lysine_d4 glycine_d5, and acetylcholine_d4) was added to all vials.
The LC column used was Imtakt Intrada amino acid WAA34, 100 × 3 mm; 3 µm, maintained at 35 °C. The system was operated in positive mode. Mobile phases were: 100 mM Ammonium formate in water (mobile phase A) and 95:5:0.3 acetonitrile:water:formic acid (mobile phase B).

Data set [8] relates to PTZ-induced epileptiform brain discharges in zebrafish larvae. Also on record: method as in PMID 34768849. The following applies: pimpinellin; cited from earlier work.

T1 sequence (Q01650 whole entry): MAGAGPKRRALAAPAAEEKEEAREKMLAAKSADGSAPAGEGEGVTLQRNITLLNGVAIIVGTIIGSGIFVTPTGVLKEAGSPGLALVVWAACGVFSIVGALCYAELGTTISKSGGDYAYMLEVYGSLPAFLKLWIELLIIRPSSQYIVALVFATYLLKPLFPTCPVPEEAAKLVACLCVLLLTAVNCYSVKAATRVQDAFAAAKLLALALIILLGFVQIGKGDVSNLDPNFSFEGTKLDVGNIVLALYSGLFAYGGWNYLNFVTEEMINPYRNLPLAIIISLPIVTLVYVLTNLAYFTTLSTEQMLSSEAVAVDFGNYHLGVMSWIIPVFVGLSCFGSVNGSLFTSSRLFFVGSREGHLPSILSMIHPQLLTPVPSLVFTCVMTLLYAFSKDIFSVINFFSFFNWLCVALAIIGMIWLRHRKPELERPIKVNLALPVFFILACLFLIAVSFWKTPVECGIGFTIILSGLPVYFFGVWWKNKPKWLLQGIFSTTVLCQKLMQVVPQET
T1 sequence (P08195 102-630 partner): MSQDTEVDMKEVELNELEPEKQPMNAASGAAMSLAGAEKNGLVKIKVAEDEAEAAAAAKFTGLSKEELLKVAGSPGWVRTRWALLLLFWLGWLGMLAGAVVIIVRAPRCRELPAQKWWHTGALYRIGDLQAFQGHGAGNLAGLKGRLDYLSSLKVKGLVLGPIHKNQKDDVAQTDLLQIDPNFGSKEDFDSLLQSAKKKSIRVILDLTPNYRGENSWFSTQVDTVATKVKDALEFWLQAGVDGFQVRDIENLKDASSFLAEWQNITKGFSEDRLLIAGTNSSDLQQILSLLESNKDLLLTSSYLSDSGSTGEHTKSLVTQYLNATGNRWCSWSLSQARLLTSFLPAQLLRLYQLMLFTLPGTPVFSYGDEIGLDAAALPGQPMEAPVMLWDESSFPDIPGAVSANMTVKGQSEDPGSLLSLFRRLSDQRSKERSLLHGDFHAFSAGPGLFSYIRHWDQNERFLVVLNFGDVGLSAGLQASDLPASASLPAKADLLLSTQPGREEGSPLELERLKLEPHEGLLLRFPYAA

Turning to `CCCC(CCC)C(=O)O` [VPN, sodium valproate], the “locomotor activity without PTZ vs vehicle” value in the data set on zebrafish larvae (VPN 5 mM, 18 h) is on record as “significant inhibition of the locomotor activity”. For the same molecule, the “% Absorbed” value is listed as ~ 6% in [1] (VPN/VPA 100 µM, 1 h immersion); 6.5% in [1] (VPN/VPA 100 µM, 1 h immersion, listed as VPN/VPA); 2.3% in data set [1] (VPN/VPA 500 µM, 1 h immersion); 3.3% in data set [1] (VPN/VPA 1 mM, 1 h immersion); 0.77% in data set [1] (VPN/VPA 5 mM, 5 min immersion); 0.8% in [1] (VPN/VPA 5 mM, 5 min immersion, listed as VPN/VPA). Besides, the “% Absorbed” value in data set [1] (VPN/VPA 5 mM, 30 min immersion) is listed as 1.44%; in data set [1] (VPN/VPA 5 mM, 30 min immersion, listed as VPN/VPA) it was 1.4%; in [1] (VPN/VPA 5 mM, 1 h immersion), 2.52%; in data set [1] (VPN/VPA 5 mM, 1 h immersion, listed as VPN/VPA), 2.5%; in data set [1] (VPN/VPA 5 mM, 18 h immersion (metabolism)), 0.76% (metabolism); in [1] (VPN/VPA 5 mM, without larvae), 100%. The Measured concentration in data set [1] (VPN/VPA 5 mM, without larvae) is 734,333 ± 5859 ng/g and 5092 ± 40.6 µM. In addition, the concentration at 1 h in data set [1] (zebrafish (Danio rerio) larvae, whole-body larvae homogenate, other: immersion in compound-containing medium, 100 µM, Measured concentration in larvae whole-body, VPN/VPA 100 µM, 1 h immersion) is 941 ng/g and 6.5 µM; in data set [1] (zebrafish (Danio rerio) larvae, whole-body larvae homogenate, other: immersion in compound-containing medium, 500 µM, Measured concentration in larvae whole-body, VPN/VPA 500 µM, 1 h immersion), 1680 ng/g and 11.6 µM; in [1] (zebrafish (Danio rerio) larvae, whole-body larvae homogenate, other: immersion in compound-containing medium, 1 mM, Measured concentration in larvae whole-body, VPN/VPA 1 mM, 1 h immersion), 4740 ng/g and 32.9 µM; in [1] (zebrafish (Danio rerio) larvae, whole-body larvae homogenate, other: immersion in compound-containing medium, 5 mM, Measured concentration in larvae whole-body, VPN/VPA 5 mM, 1 h immersion), 18200 ng/g; in data set [1] (zebrafish (Danio rerio) larvae, whole-body larvae homogenate, other: immersion in compound-containing medium, 5 mM, concentration in larvae whole-body, VPN 5 mM, 1 h), 18200 ± 400 ng/g; in [1] (zebrafish (Danio rerio) larvae, whole-body larvae homogenate, other: immersion in compound-containing medium, 10 mM, Measured concentration in larvae whole-body, VPN/VPA 10 mM, 1 h immersion) it was 33900 ng/g and 235 µM. Further, the concentration at 5 min in [1] (zebrafish (Danio rerio) larvae, whole-body larvae homogenate, other: immersion in compound-containing medium, 5 mM, Measured concentration in larvae whole-body, VPN/VPA 5 mM, 5 min immersion) was 5600 ng/g and 38.8 µM. Also, the concentration at 30 min in data set [1] (zebrafish (Danio rerio) larvae, whole-body larvae homogenate, other: immersion in compound-containing medium, 5 mM, Measured concentration in larvae whole-body, VPN/VPA 5 mM, 30 min immersion) was 10400 ng/g and 71.9 µM. In addition, the concentration at 18 h in [1] (zebrafish (Danio rerio) larvae, whole-body larvae homogenate, other: immersion in compound-containing medium, 5 mM, Measured concentration in larvae whole-body, VPN/VPA 5 mM, 18 h immersion) was 5470 ng/g and 38 µM. For the same molecule, in data set [2] (VPN 5 mM, 1 h), the “efficacy against PTZ-induced seizure-like movements” value was ~ 80%. The “activity of PTZ-treated larvae vs vehicle-PTZ group” value in data set [2] (VPN 5 mM, 18 h immersion, p < 0.001) was “decreased the activity”. Besides, in data set [3], the “therapeutic plasma concentration, total” value was 300 to 700 µM. Further, the “therapeutic plasma concentration, unbound” value in data set [3] is 30 to 100 µM. The oral bioavailability in data set [4] was ~ 90%.
For the molecule `CCCC(CCC)C(=O)O` [VPA, valproic acid], the “solubility in aqueous solutions” value in [5] was 1200 µg/mL (≈ 8.32 mM).
In the case of pteryxin [PTX], in the data set on zebrafish larvae (PTX 5 µM, 1 h), the “average movements without PTZ vs vehicle” value is recorded as “increased the average movements”. In addition, the “locomotor activity without PTZ vs vehicle” value in the data set with zebrafish larvae (PTX 20 µM, 1 h) is given as “decreased locomotor activity”; in the data set on zebrafish larvae (PTX 20 µM, 18 h), “significant inhibition of the locomotor activity”. In addition, the “decrease in the PSD values” in data set [6] came to 99.8%. Besides, the “decrease of actinteg values of PTZ-treated larvae” value was 37.6% in [2] (PTX 10 µM); 57.6% in data set [2] (PTX 15 µM); ~ 70% and 70.6% in data set [2] (PTX 20 µM). The “decrease of locomotor activity of PTZ-treated larvae” value is 61.4% in data set [2] (PTX 10 µM, 18 h immersion); 73.3% in [2] (PTX 15 µM, 18 h immersion); 78.2% in data set [2] (PTX 20 µM, 18 h immersion). For the same molecule, on LAT1, the “effect on the LAT1-mediated leucine transport” value is listed as “did not show any effect”. Besides, the “decrease of some AA levels vs control” value in data set [7] is “up to 60%”.
For the molecule `COc1c(OC)c2occc2c2oc(=O)ccc12` [Pimpinellin, pimpinellin], in data set [8], the “decrease of normalized PSD” value was 81%.

Values taken from paper PMC10252891 (Cells, 2023).
